Measured values as given in patent US20190022092A1, “Therapeutic Combinations of a BTK Inhibitor and a GITR Binding Molecule, a 4-1BB Agonist, or an OX40 Agonist” (Acerta Pharma B.V., priority 2015, published 2019).

What was measured:
[1] = system: BCR; activation markers CD69 and CD86; assay: In vivo potency: BCR stimulated with IgM, CD69 and CD86 expression by flow cytometry; details: mice gavaged, sacrificed 3 hours post-dose, compared with ibrutinib
Description: Mice were gavaged at increasing drug concentration and sacrificed at one time point (3 hours post-dose). BCR is stimulated with IgM and the expression of activation markers CD69 and CD86 are monitored by flow cytometry to determine EC50 values.

[2] = system: pancreatic cancer (KPC mice); assay: KPC pancreatic cancer mouse model; assay type: in vivo
Description: The KPC mouse model recapitulates many of the molecular, histopathologic, and clinical features of human disease (Westphalen and Olive, Cancer J. 2012, 18, 502-510). Mice were enrolled after identification of spontaneously appearing tumors in the pancreas that were ≥100 mm^3 (as assessed by high-resolution ultrasonography).

[3] = system: NK cells and MDSC subsets in peripheral blood; assay: Flow cytometry of peripheral blood cell subsets in CLL patients; assay type: in vivo, human; details: patients with falling ALC counts; 28 days of dosing
Description: PBMCs were stained with monoclonal antibodies conjugated to fluorescent tags (flourochromes) to identify cell subsets via flow cytometry. Non-viable cells were excluded from the analysis using the dye 7-aminoactinomycin D (7-AAD). To produce the metric of percent change, the following steps were taken. First, each cell subset was defined by hierarchical flow cytometry gating. Then, the change in frequency (between day 1 and day 28) was calculated for each cell subset. MDSC subsets were measured as a % of all myeloid cells. T cell subsets were measured as a % of all CD3^+ cells, and NK cells were measured as a % of all live CD45^+ cells. […] A cycle is 28 days. A trend is observed wherein patients with decreasing ALC % had increasing MDSC (monocytic) %. This may include patients who had quickly resolving lymphocytosis and those with no initial lymphocytosis. […] This may include patients who had quickly resolving lymphocytosis and those having no initial lymphocytosis. The effects in FIG. 47 to FIG. 50 are observed in multiple cohorts, at doses including 100 mg BID, 200 mg QD, and 400 mg QD. In FIG. 51 and FIG. 52, the effects on NK cells and MDSC cells are compared to a number of other markers versus % change in ALC at C1D28 and C2D28. […] The effects on NK cells and MDSC cells are observed to be much more pronounced than on any of these other markers.

[4] = system: NK cell lysis of primary CLL cells; assay: Rituximab ADCC 51Cr release assay, primary autologous CLL targets; assay type: cell-based, human; details: 1 μM; E:T 25:1
Description: Cell culture conditions were as follows. […] The HER18 cells were maintained in DEM supplemented with fetal bovine serum, penicillin-streptomycin and. Prior to assay, HER18 cells were harvested using trypsin-EDTA, washed with phosphate-buffered saline (PBS) containing 5% serum and viable cells were counted. For culture of primary target cells, peripheral blood from CLL patients was subject to density centrifugation to obtain peripheral blood mononuclear cells (PBMC). Cell preparations were washed and then subject to positive selection of CD5^+CD19^+ CLL cells using magnetic beads (MACS, Miltenyi Biotech). Cell preparations were used fresh after selection. NK cells from CLL patients and healthy volunteers were enriched from peripheral blood collected in sodium citrate anticoagulant tubes and then subject to density centrifugation. Removal of non NK cells was performed using negative selection by MACS separation. Freshly isolated NK cells were washed three times, enumerated, and then used immediately for ADCC assays.
ADCC assays were performed as follows. Briefly, target cells (Raji or primary CLL) were labeled by incubation at 37° C. with 100 μCi ^51Cr for 4 hours prior to co-culture with NK cells. […] Supernatants were harvested and ^51Cr release was measured by liquid scintillation counting. […]

[5] = GLP functional observation battery; assay type: in vivo; details: rats, doses through 300 mg/kg
Description: Formula (2) was well tolerated in standard in vivo Good Laboratory Practices (GLP) studies of pharmacologic safety.

CXCL12 and CCL2 = assay: Plasma chemokines in treated CLL patients; assay type: in vivo, human; details: CLL patients on treatment
CD8+ T cell = assay: Cytotoxicity assay for CD8+ T cell function; assay type: cell-based; details: relative to vehicle
Description: FIG. 38 illustrates the results of the cytotoxicity assay for CD8^+ T cell function.

Th17 and Treg cells = assay: Th17 and Treg development of CD4+ T cells under skewing cytokines; assay type: cell-based
Description: Enriched CD4^+ T cells are plated on 24-well culture dishes that have been precoated 2 hr with 250 μL anti-TCRβ (0.5 μg/mL) plus anti-CD28 (5 μg/mL) at 37° C. in PBS. The cells are then supplemented with media containing BTK inhibitors along with the skewing cytokines as indicated in the following. The Th17 and Treg cultures are grown for 4 days before analysis. The cells are maintained for an additional 3 days with skewing cytokines (Th17; 20 ng/mL IL-6, 0.5 ng/mL TGF-β, 5 μg/mL IL-4, 5 μg/mL IFN-γ and Treg; 0.5 ng/mL TGF-β, 5 μg/mL IL-4, 5 μg/mL IFN-γ) and are supplemented with IL2 as a growth factor.

NSCLC (KrasLA2) = assay: KrasLA2 genetic tumor model of NSCLC; assay type: in vivo; details: KrasLA2 mice, 15 mg/kg
Description: The model is designed to have sporadic expression in single cells of G12D mutant Kras off its own promoter triggered by spontaneous intrachromosomal recombination. Johnson, et al., Nature 2001, 410, 1111-16. While the mutant Kras protein is expressed in a few cells in all tissues, tumor development is seen only in the lung at high penetrance.

CYP3A4 = CYP3A4 (Homo sapiens, UniProt P08684); assay: In vitro loss of parent drug as catalyzed by CYPs; assay type: in vitro ADME
CYP3A4, sequence (P08684 whole entry): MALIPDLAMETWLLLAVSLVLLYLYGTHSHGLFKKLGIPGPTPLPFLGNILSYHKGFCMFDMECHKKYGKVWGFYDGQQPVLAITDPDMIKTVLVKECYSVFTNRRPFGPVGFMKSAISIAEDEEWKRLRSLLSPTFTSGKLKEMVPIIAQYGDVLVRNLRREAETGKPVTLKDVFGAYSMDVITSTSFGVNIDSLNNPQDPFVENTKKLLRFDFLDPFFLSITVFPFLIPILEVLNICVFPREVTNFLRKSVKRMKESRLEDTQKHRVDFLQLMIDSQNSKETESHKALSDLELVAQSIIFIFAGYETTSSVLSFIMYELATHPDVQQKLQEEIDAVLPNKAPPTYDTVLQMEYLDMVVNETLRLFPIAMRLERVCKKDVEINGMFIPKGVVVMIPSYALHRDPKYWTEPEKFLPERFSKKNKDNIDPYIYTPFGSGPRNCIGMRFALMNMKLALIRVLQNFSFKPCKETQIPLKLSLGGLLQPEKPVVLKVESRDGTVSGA

[6] = system: GPVI platelet aggregation; assay: GPVI platelet aggregation studies; assay type: cell-based; details: read-out: IC50, GPVI platelet aggregation

## CC#CC(=O)N1CCC[C@H]1c1nc(-c2ccc(C(=O)Nc3ccccn3)cc2)c2c(N)nccn12 [Formula (2), (S)-4-(8-amino-3-(1-(but-2-ynoyl)pyrrolidin-2-yl)imidazo[1,5-a]pyrazin-1-yl)-N-(pyridin-2-yl)benzamide]
[1]
  inhibition of expression of activation markers CD69 and CD86: more potent at inhibiting expression of activation makers than Formula (10) (ibrutinib)
[2]; 15 mg/kg BID
  CD8+ cells in tumor tissues: significant increase
  MDSCs in tumor tissues: significantly reduced
  Tregs in tumor tissues: significantly reduced
  immunosuppressive TAMs in tumor tissues: significantly reduced
[2]; 15 mg/kg BID orally
  survival at day 28: 5/6
[2]; 15 mg/kg BID orally, day 28
  average tumor volume, day 28: 272 mm^3
[2]; 15 mg/kg BID orally, predose
  average tumor volume, predose: 165 mm^3
[3]
  NK cells and monocytic MDSC subsets in peripheral blood: increase in frequency
[4]
  effect on rituximab-mediated ADCC, primary CLL samples (autologous): not inhibited
[5]
  functional observation battery: neurobehavioral effects, body temperature: no adverse effects
CXCL12 and CCL2
  plasma CCL2 levels: significant decrease
  plasma CXCL12 levels: significant decrease
CD8+ T cell
  CD8+ T cell function as % cytotoxicity: no effect on CD8^+ T cell function as measured by % cytotoxicity relative to vehicle
Th17 and Treg cells
  Th17 development: no adverse effect
  Treg development: no adverse effect
NSCLC (KrasLA2)
  tumor volumes versus vehicle: significant decrease
CYP3A4
  CYP responsible for metabolism: metabolized by CYP3A4
[6]
  IC50: 1150 nM
